Source: patent publication US8097728B2, “Iminosugar compounds with antiflavirus activity” (Philadelphia Health & Education Corporation, priority 2007, dated 2012)
Where two headings read alike, the source gives them in different places.

Legend:
ER glucosidase = conditions: 6000 uM; cited from earlier work
HBV = HBV antigen assay: LHBs and MHBs secreted by HepG2.2.15 cells, immunoblot; type: cell-based, Hepatitis B virus; conditions: 7 days
Protocol: MHBs and LHBs are HBV envelope proteins that are sensitive to glucosidase inhibition and inhibition of these important viral glycoproteins serves as a surrogate for HBV growth. […] To assess the activity of this compound in the context of viral replication, HepG2 2.2.15 cells were incubated with the indicated DNJ derived compound. HepG 2.2.15 cells secrete readily detectable amounts of MHBs and LHBs into the culture medium. After 7 days of incubation, the amount of HBV M and L in the culture medium was determined by western blot. […] The nature of the selective antiviral activity is not known, but may be due to cell specific activity since HBV is studied in human liver derived hepatoblastoma HepG2 cells and BVDV and WNV were studied in MDBK and BHK cells, respectively.
HBV antigen assay: Antiviral activity against HBV was determined using HepG2.2.15 cells, which contain a dimer of the HBV genome and express all viral gene products, including envelope glycoproteins (Sells, Chen, and Acs, 1987). Briefly, HepG2.2.15 cells were seeded in 24 well trays, and allowed to grow to confluence prior to addition of drug, as described previously (Simsek et al., 2005). After seven days of treatment, supernatants were harvested and assayed for the presence of the Large Hepatitis B (LHBs) and middle Hepatitis B (MHBs) glycoproteins by electrophoresis through 12% polyacrylamide gels and immunoblotting with a polyclonal antibody that recognizes the pre-S2 region of the LHBs and MHBs proteins (Research Diagnostics Inc., Flanders, N.J.) as described (Simsek et al., 2005). Quantitation was performed using AlphaEase software (Alphalnnotech).

BVDV = BVDV single cycle virus yield reduction assay in MDBK cells; type: cell-based, Bovine Viral Diarrhea virus (NADL strain)
Protocol: BVDV antiviral and plaque assays. To evaluate antiviral activity against BVDV, a single cycle virus yield reduction assay was performed in the presence of various concentrations of the test compounds. Specifically, 2×10^5 MDBK cells/well were plated in 24 well plates. Twenty-four hours later, the cells were infected with BVDV at a multiplicity of infection (moi) of 0.5 PFU/cell in 100 ul complete media. After adsorption for 1 h at 37° C., the inoculum was removed, and cells were washed with media before media containing vehicle or various concentrations of each compound was added. At 22 hour post infection, both cell and media were collected and freeze-thawed three times before the virus was titered. For BVDV virus titer determination, 10^−2, 10^−3, and 10^−4 dilutions of virus were inoculated onto MDBK cells as described previously (Gu et al., 2000; Jordan et al., 2002). After absorption and washing the cells were overlaid with medium containing methylcellulose or soft agar and incubated at 37° C. for 3 days or until plaques were visible. Plaques were counted directly under the microscope or after staining with crystal violet in 70% methanol for 15 min.
(§1) The anti-viral activity of this family of compounds against BVDV was then determined by a single cycle viral yield reduction assay in Madin Darby Bovine Kidney (MDBK) cells where the compounds are incubated with cells for 20 hours during the period of infection. Yields of virus were then determined by plaque assay on new MDBK cell monolayers. Compound toxicity was measured by MTT assay and the CC50 determined as the concentration of compound producing 50% reduction in absorption readings. […] This is consistent with previous findings in which oxygenation and methoxylation of side chains emanating from the ring nitrogen were less toxic in tissue culture and in animals than straight chain alkylated DNJs (Mehta et al., 2002b).

WNV = WNV yield reduction assay in BHK cells
Protocol: Cells and viruses. BVDV-free MDBK cells (CCL 22) were obtained from the American Type Culture Collection and propagated in DMEM/F12 essential medium supplemented with penicillin (500 U/ml), streptomycin (500 U/ml), and 10% heat inactivated horse serum (Invitrogen). Cells were maintained in a humidified incubator at 37° C. with 5% CO2. BVDV (NADL strain) was obtained from Dr. Rubin Donis (Univ. of Nebraska-Lincoln). For infections, virus inoculum was added in complete medium and adsorbed for 1 h at 37° C., the inoculum was then removed, the cells washed once with medium and fresh medium containing compounds added. Virus stocks were prepared by freeze-thawing the infected cells and culture supernatant three times followed by centrifugation at 1,000 g for 5 min. Stock titers were determined, and stocks were aliquoted and stored at −80° C. WNV was obtained from a cDNA clone of a human 2002 isolate from Texas (Rossi et al., 2005); virus obtained from BHK cells electroporated with the in vitro synthesized RNA from this cDNA clone was passaged in Vero cells before use in antiviral assays. Dengue virus (DV) serotype 2 was a New Guinea C virus that had been passaged 28 times in suckling mouse brain, twice in Vero cells, and once in C6/36 mosquito cells.
WNV and DV Yield Reduction assay: Antiviral activity against WNV was evaluated in a yield reduction assay. Briefly, BHK cells were plated in 96-well plates at a concentration of 2.5×10^4 cells/well. 24 hours after plating, the cells were infected with WNV at an MOI of 0.05. After 1 hour the inoculum was aspirated and the cells re-fed with fresh DMEM containing dilutions of the test compounds. Plates were then incubated at 37° C. for 48 hours, the supernatant collected and the WNV produced titered. For virus titration, Vero cells were plated in 96-well plates at 8.0×10^3 cells/well and incubated overnight. The Vero cell monolayers were then infected for 1 hour with various dilutions of the WNV supernatant, overlaid with media containing 0.6% tragacanth (ICN, CA) and incubated at 37° C. for 24-30 hours. The culture media was then aspirated; the plate was rinsed, air-dried, and fixed with 50 ul/well acetone/methanol (50:50). Viral foci were detected for enumeration by immunostaining as described previously (Rossi et al., 2005). For antiviral testing against DV, DV serotype 2, drug incubations and titrations were performed essentially as described for WNV, except that the virus was harvested from drug-treated cultures 72 hrs after infection, and foci were stained using hybridoma culture fluid harvested from monoclonal antibody-producing hybridoma clone D1-4G2 (Gentry et al., 1982) following 3 days of incubation on Vero cells under the tragacanth overlay.
For this purpose, BHK cells were infected with WNV at an moi of 0.05, and incubated in either the absence or presence of various concentrations of N-butylcyclohexyl-DNJ (SP169) and N-propylcyclohexyl-DNJ (SP173). After three days, the amount of progeny virus produced was determined by plaque assays on indicator Vero cells.

DV serotype 2 = assay: DV yield reduction assay in BHK cells; type: cell-based, Dengue virus (DV) serotype 2; conditions: DV (BHK)
Protocol: In the DV infection assay, a serotype 2 DV was used to infect BHK cells in the presence or absence of testing compounds and viruses produced after 72 hours were titered in a manner similar to the WNV assay. In this experiment, N-butylcyclohexyl-DNJ (SP169), N-pentyl(1-hydroxylcyclohexyl)-DNJ (OSL-95II), […] and N-propylcyclohexyl-DNJ (SP173) were compared with NNDNJ (Wu et al., 2002) and castanospermine. […] All compounds had no toxicity at the highest concentrations used in this experiment (FIG. 5B, Table 1).

MDBK cells = assay: MTT compound toxicity assay on MDBK cells; type: cell-based, Bovine; conditions: BVDV (MDBK); concentration reducing MTT values (570 nm) by 50% relative to DMSO; 72 hours
Protocol: (§2) Compound toxicity assay. Compound cytotoxicity was assessed by using an MTT based toxicity assay kit (Sigma, St. Louis, Mo.) as described elsewhere (Gu et al., 2006). Briefly, cells cultured under conditions identical to those used in the viral assay were incubated with various concentrations of the compound for 72 hours. MTT was added to the media to a final concentration of 0.5 mg/ml and was incubated for 3 hours at 37 C. After the culture media was removed, formazan crystals was dissolved by adding 150 ul of solubilization solution (10% Triton X-100, 0.1 N HCl in anhydrous isopropanol) for 15-30 minutes. The absorbance of the dissolved formazan was measured spectrophotometrically at 570 nm with absorbance at 690 nm as background.
as §1

MHBs = MHBs expressed transiently in cells; read-out: IC50, reduction of secretion of MHBs; cited from earlier work
BHK cells = assay: MTT compound toxicity assay on BHK cells; type: cell-based
Protocol: as §2

SMILES	inhibition of the ER glucosidase (ER glucosidase)	reduction of MHBs and LHBs in culture medium (in words) (HBV; 6000 uM (6 mM), FIG. 6B)	SI (Selective Index, CC50/IC50) (BVDV; BVDV (MDBK))	IC50 (BVDV; tissue culture, data not shown, read-out: concentration inhibiting 50% of the yield of BVDV) [µM]	antiviral activity against WNV (in words) (WNV; BHK cells, moi 0.05, FIG. 3B / 4D)	SI (Selective Index, CC50/IC50) (WNV; WNV (BHK))	IC50 (WNV; WNV (BHK), plaque number reduced by 50% relative to DMSO, 48 hours) [µM]	IC50 (WNV; read-out: concentration inhibiting 50% of the WNV progeny produced, text to FIG. 3B, BHK cells, moi 0.05) [µM]	inhibition of secretion of viral glycoproteins MHBs and LHBs (in words) (HBV; 50 uM, FIG. 6A)	SI (Selective Index, CC50/IC50) (DV serotype 2)	IC50 (DV serotype 2; serotype 2, 72 hrs, read-out: IC50) [µM]	CC50 (MDBK cells) [µM]	IC50 (MHBs) [µM]	concentration without any detectable cell toxicity (highest concentration tested) (BHK cells; BHK cells, measured in parallel to WNV assay, data not shown) [µM]	CC50 (BHK cells; WNV (BHK), MTT, 50% reduction relative to DMSO) [µM]
OC[C@H]1NC[C@H](O)[C@@H](O)[C@@H]1O [DNJ, 1,5-dideoxy-1,5-imino-D-glucitol, reference compound]	at least 90%	antiviral activity at this dose is consistent with previous findings	–	–	–	–	–	–	–	–	–	–	–	–	–
OC[C@@H]1[C@@H](O)[C@H](O)[C@@H](O)CN1CCCCC1CCCCC1 [SP169, N-butylcyclohexyl-DNJ]	–	–	>100	3	comparable to NNDNJ in activity	>40	2.5	5	unable to inhibit secretion of viral glycoproteins	>66	1.5	300	≤ 35	100	> 100
